Test results: publication PMC5026118 (Journal of pharmaceutical sciences, 2016)

Test: Aqueous solubility determination at room temperature
Format: physicochemical
Conditions: water; for log Sw (mg/ml) / Sw (log) Experimental: aqueous solubility of the hydrate, room temperature; for Sw (log) Experimental: value in brackets

Row | solubility thermodynamic at 48 h (thermodynamic from solid) [µg/mL] | SMILES | log Sw (mg/ml) [log mg/ml] | Sw (log) Experimental [log mg/ml]
1 | 120 | Sc1ncnc2nc[nH]c12 [Mercaptopurine, mercaptopurine monohydrate] | −0.93 | −0.93
2 | – | O=c1c(O)c(-c2cc(O)c(O)c(O)c2)oc2cc(O)cc(O)c12 [Myricetin, Myricetin (MYR) monohydrate] | −3.19 | −3.19
